# Measurements published in patent US20260166039A1 (SCHRÖDINGER, INC., priority 2022, published 2026).
# Where two headings read alike, the source gives them in different places.
# What was measured:
# Wee1 kinase domain = target: T1, Wee1 kinase domain (Homo sapiens, UniProt P30291); test: Wee1 Kinase Biochemical Assay (ADP-Glo); conditions: 15 uM ATP
# T1 construct: Wee1 kinase domain was purchased from Carna (catalog #05-177); purchased Carna 05-177
# Outline: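 1 nM enzyme; 15 uM ATP; 2 ng/mL poly(Lys,Tyr 4:1); 40 mM Tris-HCl, 20 mM MgCl2, 0.1 mg/mL BSA, 2 mM DTT; 4 h, 25 °C; ADP-Glo; % inhibition vs DMSO and saturating positive-control wells.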
# [1] = system: phosphorylation of Cdc2 Y15 (Wee1 substrate) in A427 cells; test: Phosphorylated Cdc2 MSD Electrochemiluminescence Assay; type: cell-based; conditions: Homo sapiens
# Outline: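 A427 cells (RPMI 1640, 10% FBS) treated 20 h after plating with 3-fold serial compound dilutions, in duplicate, 37 °C, 5% CO2; total incubation 6 h. Lysate Cdc2 pY15 read by MSD electrochemiluminescence sandwich immunoassay; % remaining signal normalised to DMSO (high) and reference Wee1 inhibitor (low) controls.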
# [2] = class symbols, 1 nM Wee1 enzyme, 4 hours at 25° C.
# [3] = A-427, class symbols, read-out: A427 pCDC2 MSD IC50
# T1 sequence (P30291 299-569 limits assumed): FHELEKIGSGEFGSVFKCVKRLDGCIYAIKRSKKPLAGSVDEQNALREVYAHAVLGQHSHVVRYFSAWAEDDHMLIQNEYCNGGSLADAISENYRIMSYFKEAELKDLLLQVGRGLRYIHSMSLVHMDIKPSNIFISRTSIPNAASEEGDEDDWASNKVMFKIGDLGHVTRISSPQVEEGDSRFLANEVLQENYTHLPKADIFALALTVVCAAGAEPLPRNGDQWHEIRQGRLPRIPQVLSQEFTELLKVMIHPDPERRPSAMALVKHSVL
Compound,IC50 (Wee1 kinase domain; [2]),"IC50 [1, 3]","IC50 (Wee1 kinase domain; Wee1 kinase domain, ADP-Glo)","IC50 ([1]; A-427, pCDC2 MSD)"
"Cc1cc(Nc2ncc3c(n2)N(c2cccc(N4CCOC4=O)n2)[C@@H]2CC(C)(C)OC[C@]32C)ccc1C1CCN(C)CC1 (single isomer, unassigned) [Example 597]",< 10 nM,100 to 1000 nM,–,–
"CN1CCC(n2ccc(Nc3ncc4c(n3)N(c3cccc(C(C)(C)O)n3)[C@@H]3CC(C)(C)OC[C@]43C)cc2=O)CC1 (single isomer, unassigned) [Example 810]",< 10 nM,100 to 1000 nM,–,–
"CC1(C)C[C@H]2N(c3cccc(N=S(C)(C)=O)n3)c3nc(Nc4cncc(F)c4)ncc3[C@@]2(C)CO1 (single isomer, unassigned) [Example 369]",–,–,< 10 nM,100 to 1000 nM
"C[C@H]1COC(=O)N1c1cccc(N2c3nc(Nc4ccc(O[C@H]5CCNC5)cc4)ncc3[C@@]3(C)COC(C)(C)C[C@@H]23)n1 (single isomer, unassigned) [Example 329]",–,–,< 10 nM,100 to 1000 nM
"Cc1cc(Nc2ncc3c(n2)N(c2cccc([C@H]4CCCN4)n2)[C@@H]2CC(C)(C)OC[C@]32C)ccc1N1CCOCC1 (single isomer, unassigned) [Example 522]",< 10 nM,100 to 1000 nM,–,–
"CN1C[C@@H]2C[C@H]1CN2c1ccc(Nc2ncc3c(n2)N(c2cccc(N=S(C)(C)=O)n2)[C@@H]2CC(C)(C)OC[C@]32C)cc1 (single isomer, unassigned) [Example 124]",–,–,< 10 nM,< 100 nM
"Cn1cc(Nc2ncc3c(n2)N(c2cccc(N=S(C)(C)=O)n2)[C@@H]2CC(C)(C)OC[C@]32C)cn1 (single isomer, unassigned) [Example 484]",< 10 nM,< 100 nM,–,–
"CN1Cc2cc(Nc3ncc4c(n3)N(c3cccc(N=S(C)(C)=O)n3)[C@@H]3CC(C)(C)OC[C@]43C)ccc2C2(CC2)C1 (single isomer, unassigned) [Example 107]",–,–,< 10 nM,< 100 nM
"CN1CC[C@@H](c2ccc(Nc3ncc4c(n3)N(c3cccc(N=S(C)(C)=O)n3)[C@@H]3CC(C)(C)OC[C@]43C)cc2)C1 (single isomer, unassigned) [Example 129]",–,–,< 10 nM,< 100 nM
"CNCc1cccc(N2c3nc(Nc4ccc([C@H]5CCNC5)cc4)ncc3[C@@]3(C)COC(C)(C)C[C@@H]23)n1 (single isomer, unassigned) [Example 452]",< 10 nM,100 to 1000 nM,–,–
"CNCc1cccc(N2c3nc(Nc4ccc(-n5ccnc5)nc4)ncc3[C@@]3(C)COC(C)(C)C[C@@H]23)n1 (single isomer, unassigned) [Example 468]",< 10 nM,1000 to 10000 nM,–,–
"Cc1cc(Nc2ncc3c(n2)N(c2cccc(N=S(C)(C)=O)n2)[C@@H]2CC(C)(C)OC[C@]32C)ccc1[C@H]1CCNC1 (single isomer, unassigned) [Example 149]",–,–,< 10 nM,100 to 1000 nM
"CC1(C)C[C@H]2N(c3cccc(N4CCOC4=O)n3)c3nc(Nc4ccc([C@H]5CNC[C@H]5F)cc4)ncc3[C@@]2(C)CO1 [Example 672, 3-(6-((4bR,8aR)-2-((4-((3S,4S)-4-fluoropyrrolidin-3-yl)phenyl)amino)-4b,7,7-trimethyl-4b,7,8,8a-tetrahydropyrano[3′,4′:4,5]pyrrolo[2,3-d]pyrimidin-9(5H)-yl)pyridin-2-yl)oxazolidin-2-one]",< 10 nM,100 to 1000 nM,–,–
"CN[C@@H](C)c1cccc(N2c3nc(Nc4ccc(N5C[C@H]6C[C@@H]5CO6)cc4)ncc3[C@]3(C)COC(C)(C)C[C@H]23)n1 (single isomer, unassigned) [Example 579]",< 10 nM,100 to 1000 nM,–,–
"C[C@H]1COC(=O)N1c1cccc(N2c3nc(Nc4ccc([C@@H]5CCN(C)C5)nc4)ncc3[C@]3(C)COC(C)(C)C[C@H]23)n1 (single isomer, unassigned) [Example 264]",–,–,10 to 100 nM,100 to 1000 nM
"CN1CC(c2ccc(Nc3ncc4c(n3)N(c3cccc(N=S(C)(C)=O)n3)[C@@H]3CC(C)(C)OC[C@]43C)cn2)C1 (single isomer, unassigned) [Example 192]",–,–,< 10 nM,100 to 1000 nM
"CC1(C)C[C@H]2N(c3cccc(N=S(C)(C)=O)n3)c3nc(Nc4ccc([C@@H]5CCCN5)nc4)ncc3[C@@]2(C)CO1 (single isomer, unassigned) [Example 214]",–,–,< 10 nM,100 to 1000 nM
"CN1[C@@H]2C[C@H]1CN(c1ccc(Nc3ncc4c(n3)N(c3cccc(N=S(C)(C)=O)n3)[C@@H]3CC(C)(C)OC[C@]43C)cc1)C2 (single isomer, unassigned) [Example 506]",< 10 nM,100 to 1000 nM,–,–
"CN=S1(=O)CCN(c2ccc(Nc3ncc4c(n3)N(c3cccc(CNC)n3)[C@@H]3CC(C)(C)OC[C@]43C)cc2)CC1 (single isomer, unassigned) [Example 65]",–,–,< 10 nM,100 to 1000 nM
"CN1CCCC(n2cc(Nc3ncc4c(n3)N(c3cccc(N=S(C)(C)=O)n3)C3CC(C)(C)OCC43C)cn2)C1 (single isomer, unassigned) [Example 202]",–,–,< 10 nM,100 to 1000 nM
"CN1C[C@@H]2C[C@H]1CN2c1ccc(Nc2ncc3c(n2)N(c2cccc(C4(O)COC4)n2)[C@@H]2CC(C)(C)OC[C@]32C)cc1 (single isomer, unassigned) [Example 518]",< 10 nM,100 to 1000 nM,–,–
"CN1CCC(n2cc(Nc3ncc4c(n3)N(c3cccc(N=S(C)(C)=O)n3)[C@@H]3CC(C)(C)OC[C@]43C)cn2)C1 (stereo partly drawn) [Example 196, dimethyl((6-((4bR,8aR)-4b,7,7-trimethyl-2-((1-((R)-1-methylpyrrolidin-3-yl)-1H-pyrazol-4-yl)amino)-4b,7,8,8a-tetrahydropyrano[3′,4′:4,5]pyrrolo[2,3-d]pyrimidin-9(5H)-yl)pyridin-2-yl)imino)-16-sulfanone]",–,–,< 10 nM,100 to 1000 nM
"Cc1cc(Nc2ncc3c(n2)N(c2cccc(N4CCOC4=O)n2)[C@@H]2CC(C)(C)OC[C@]32C)ccc1N1C[C@@H]2C[C@H]1CN2C [Example 654, 3-(6-((4bR,8aR)-4b,7,7-trimethyl-2-((3-methyl-4-((1S,4S)-5-methyl-2,5-diazabicyclo[2.2.1]heptan-2-yl)phenyl)amino)-4b,7,8,8a-tetrahydropyrano[3′,4′:4,5]pyrrolo[2,3-d]pyrimidin-9(5H)-yl)pyridin-2-yl)oxazolidin-2-one]",< 10 nM,100 to 1000 nM,–,–
"CN1C[C@H]2C[C@@H]1CN2c1ccc(Nc2ncc3c(n2)N(c2cccc(C(C)(C)O)n2)[C@@H]2CC(C)(C)OC[C@]32C)cc1 (single isomer, unassigned) [Example 413]",< 10 nM,100 to 1000 nM,–,–
"C[C@H]1COC(=O)N1c1cccc(N2c3nc(Nc4ccc(O[C@@H]5CCN(C)C5)cc4)ncc3[C@@]3(C)COC(C)(C)C[C@@H]23)n1 (single isomer, unassigned) [Example 331]",–,–,< 10 nM,100 to 1000 nM
"CNCc1cccc(N2c3nc(Nc4ccc(C(C)(C)C)cc4)ncc3[C@@]3(C)COC(C)(C)C[C@@H]23)n1 (single isomer, unassigned) [Example 73]",–,–,< 10 nM,100 to 1000 nM
"CN1CCN(c2ccc(Nc3ncc4c(n3)N(c3cccc(S(C)(=O)=O)n3)[C@@H]3CC(C)(C)OC[C@]43C)cc2)CC1 (single isomer, unassigned) [Example 749]",< 10 nM,100 to 1000 nM,–,–
"CN1CC[C@H](c2ccc(Nc3ncc4c(n3)N(c3cccc(N=S(C)(C)=O)n3)[C@@H]3CC(C)(C)OC[C@]43C)cc2)C1 (single isomer, unassigned) [Example 133]",–,–,< 10 nM,100 to 1000 nM
